Measured values reported in EP4548976A1, “ANTIVIRAL COMPOUNDS AND COMPOSITIONS THEREFROM” (Consejo Superior De Investigaciones Científicas, priority 2023, dated 2025).

Assays:
[1] = system: SARS-CoV-2 stock strain NL/2020; experiment: Antiviral activity in A549-ACE2 cells using viral antigen quantitation (SARS-CoV-2 N protein immunofluorescence); assay type: cell-based; settings: Severe acute respiratory syndrome coronavirus 2, MOI 0.005, 48 h; for EC50: concentration reducing SARS-CoV-2 infection efficiency by 50% vs vehicle; for EC90: concentration reducing SARS-CoV-2 infection efficiency by 90% vs vehicle
in vitro = settings: human

## COC(=O)c1cc(-c2cnn(Cc3ccccc3)c2)ccc1NC(C#N)[C@H](Cc1c[nH]c2ccccc12)NC(=O)OC(C)(C)C (mixture of isomers) [Example 17, Methyl 5-(1-benzyl-1H-pyrazol-4-yl)-2-(((1RS,2S)-2-((tert-butoxycarbonyl)amino)-1-cyano-3-(1H-indol-3-yl)propyl)amino)benzoate]
[1]
  EC50: 1 µM
  EC90: 2 µM
In vitro
  CC50: > 50 µM

## COC(=O)c1cc(-c2c[nH]c3ncccc23)ccc1NC(C#N)[C@H](Cc1c[nH]c2ccccc12)NC(=O)OC(C)(C)C (mixture of isomers) [Example 18, Methyl 2-(((1RS,2S)-2-((tert-butoxycarbonyl)amino)-1-cyano-3-(1H-indol-3-yl)propyl)amino)-5-(1H-pyrrolo[2,3-b]pyridin-3-yl)benzoate]
[1]
  EC50: 6 µM
  EC90: 9 µM
In vitro
  CC50: 10 µM

## COC(=O)c1cc(-c2ccc3c(ccn3C(=O)OC(C)(C)C)c2)ccc1NC(C#N)[C@H](Cc1c[nH]c2ccccc12)NC(=O)OC(C)(C)C (mixture of isomers) [Example 19, tert-Butyl 5-(4-(((1RS,2S)-2-((tert-butoxycarbonyl)amino)-1-cyano-3-(1H-indol-3-yl)propyl)amino)-3-(methoxycarbonyl)phenyl)-1H-indole-1-carboxylate]
[1]
  EC50: 6 µM
  EC90: 31 µM
In vitro
  CC50: > 50 µM

## COC(=O)c1cc(-c2ccc(N3CCOCC3)cc2)ccc1NC(C#N)[C@H](Cc1c[nH]c2cccc(-c3ccc(-c4cn(CCCOCCOCCOCCNC(=O)CCC[C@H]5SC[C@H]6NC(=O)N[C@H]65)nn4)cc3)c12)NC(=O)OC(C)(C)C (mixture of isomers) [Example 20, Methyl 4-(((1RS,2S)-2-((tert-butoxycarbonyl)amino)-1-cyano-3-(4-(4-(1-(14-oxo-17-((3aR,4R,6aS)-2-oxohexahydro-1H-thieno[3,4-d]imidazol-4-yl)-4,7,10-trioxa-13-azaheptadecyl)-1H-1,2,3-triazol-4-yl)phenyl)-1H-indol-3-yl)propyl)amino)-4'-morpholino-[1,1'-biphenyl]-3-carboxylate]
[1]
  EC50: 2 µM
  EC90: 50 µM
In vitro
  CC50: > 50 µM

## COC(=O)c1cc(-c2ccc(F)c(-c3nn[nH]n3)c2)ccc1NC(C#N)[C@H](Cc1c[nH]c2ccccc12)NC(=O)OC(C)(C)C (mixture of isomers) [Example 21, Methyl 4-(((1RS,2S)-2-((tert-butoxycarbonyl)amino)-1-cyano-3-(1H-indol-3-yl)propyl)amino)-4'-fluoro-3'-(2H-tetrazol-5-yl)-[1,1'-biphenyl]-3-carboxylate]
[1]
  EC50: 6 µM
  EC90: > 50 µM
In vitro
  CC50: > 50 µM

## COC(=O)c1cc(C2=CCCCC2)ccc1NC(C#N)[C@H](Cc1c[nH]c2ccccc12)NC(=O)OC(C)(C)C (mixture of isomers) [Example 22, Methyl 4-(((1RS,2S)-2-((tert-butoxycarbonyl)amino)-1-cyano-3-(1H-indol-3-yl)propyl)amino)-2',3',4',5'-tetrahydro-[1,1'-biphenyl]-3-carboxylate]
[1]
  EC50: 6 µM
  EC90: 9 µM
In vitro
  CC50: 32 µM

## COC(=O)c1cc(-c2ccnn2C2CCCCO2)ccc1NC(C#N)[C@H](Cc1c[nH]c2ccccc12)NC(=O)OC(C)(C)C (mixture of isomers) [Example 23, Methyl 2-(((1RS,2S)-2-((tert-butoxycarbonyl)amino)-1-cyano-3-(1H-indol-3-yl)propyl)amino)-5-(1-(tetrahydro-2H-pyran-2-yl)-1H-pyrazol-5-yl)benzoate]
[1]
  EC50: 4 µM
  EC90: 8 µM
In vitro
  CC50: 50 µM

## COC(=O)c1cc(-c2ccc3ocnc3c2)ccc1NC(C#N)[C@H](Cc1c[nH]c2ccccc12)NC(=O)OC(C)(C)C (mixture of isomers) [Example 24, Methyl 5-(benzo[d]oxazol-5-yl)-2-(((1RS,2S)-2-((tert-butoxycarbonyl)amino)-1-cyano-3-(1H-indol-3-yl)propyl)amino)benzoate]
[1]
  EC50: 6 µM
  EC90: 9 µM
In vitro
  CC50: > 50 µM

## COC(=O)c1cc(-c2cnn(CCN3CCOCC3)c2)ccc1NC(C#N)[C@H](Cc1c[nH]c2ccccc12)NC(=O)OC(C)(C)C (mixture of isomers) [Example 25, Methyl 2-(((1RS,2S)-2-((tert-butoxycarbonyl)amino)-1-cyano-3-(1H-indol-3-yl)propyl)amino)-5-(1-(2-morpholinoethyl)-1H-pyrazol-4-yl)benzoate]
[1]
  EC50: 6 µM
  EC90: 9 µM
In vitro
  CC50: > 50 µM

## CC(C)(C)OC(=O)N[C@H](Cc1c[nH]c2ccccc12)C(C#N)Nc1ccc(Br)cc1C(=O)c1ccccc1 (mixture of isomers) [Example 26, tert-Butyl ((1RS,2R)-1-((2-benzoyl-4-bromophenyl)amino)-1-cyano-3-(1H-indol-3-yl)propan-2-yl)carbamate]
[1]
  EC50: 6 µM
  EC90: 28 µM
In vitro
  CC50: 50 µM

## COC(=O)c1cc(-c2ccc3[nH]ccc3c2)ccc1NC(C#N)[C@@H](Cc1c[nH]c2ccccc12)NC(=O)OC(C)(C)C (mixture of isomers) [Example 27, Methyl 2-(((1RS,2R)-2-((tert-butoxycarbonyl)amino)-1-cyano-3-(1H-indol-3-yl)propyl)amino)-5-(1H-indol-5-yl)benzoate]
[1]
  EC50: 7 µM
  EC90: 9 µM
In vitro
  CC50: 35 µM

## COC(=O)c1cc(-c2ccc3c(c2)OCCO3)ccc1NC(C#N)[C@@H](Cc1c[nH]c2ccccc12)NC(=O)OC(C)(C)C (mixture of isomers) [Example 28, Methyl 2-(((1RS,2R)-2-((tert-butoxycarbonyl)amino)-1-cyano-3-(1H-indol-3-yl)propyl)amino)-5-(2,3-dihydrobenzo[b][1,4]dioxin-6-yl)benzoate]
[1]
  EC50: 7 µM
  EC90: 30 µM
In vitro
  CC50: > 50 µM

## COC(=O)c1cc(-c2ccc(NC(C)=O)nc2)ccc1NC(C#N)[C@H](Cc1c[nH]c2ccccc12)NC(=O)OC(C)(C)C (mixture of isomers) [Example 29, Methyl 5-(6-acetamidopyridin-3-yl)-2-(((1RS,2S)-2-((tert-butoxycarbonyl)amino)-1-cyano-3-(1H-indol-3-yl)propyl)amino)benzoate]
[1]
  EC50: 3 µM
  EC90: 8 µM
In vitro
  CC50: > 50 µM

## COC(=O)c1cc(-c2cccc3[nH]ncc23)ccc1NC(C#N)[C@H](Cc1c[nH]c2ccccc12)NC(=O)OC(C)(C)C (mixture of isomers) [Example 30, Methyl 2-(((1RS,2S)-2-((tert-butoxycarbonyl)amino)-1-cyano-3-(1H-indol-3-yl)propyl)amino)-5-(1H-indazol-4-yl)benzoate]
[1]
  EC50: 1 µM
  EC90: 2 µM
In vitro
  CC50: 10 µM

## CC(C)(C)OC(=O)N[C@@H](Cc1c[nH]c2ccccc12)C(C#N)Nc1ccccc1C(=O)N1CCCCCC1 (mixture of isomers) [Example 31, tert-Butyl ((1RS,2S)-1-((2-(azepane-1-carbonyl)phenyl)amino)-1-cyano-3-(1H-indol-3-yl)propan-2-yl)carbamate]
[1]
  EC50: 8 µM
  EC90: 39 µM
In vitro
  CC50: 36 µM
